Legend:
[1] = molecular target: NUAK family SNF1-like kinase 2 (Homo sapiens) (UniProt Q9H093); assay: Inhibition of human NUAK2 (P22 to A333 residues) expressed in mammalian expression system assessed as residual activity at 50 nM by KINOMEscan assay relative to control
[2] = molecular target: Mitogen-activated protein kinase kinase kinase kinase 1 (Homo sapiens) (UniProt Q92918); assay: Inhibition of wild-type human full length HPK1 (M1 to R799 residues) expressed in bacterial expression system assessed as residual activity at 50 nM by Kinomescan method relative to control
[3] = molecular target: Platelet-derived growth factor receptor beta (Homo sapiens) (UniProt P09619); assay: Inhibition of wild-type human partial length PDGFRB (V582 to Y1009 residues) expressed in bacterial expression system assessed as residual activity at 50 nM by Kinomescan method relative to control
[4] = molecular target: Cyclin-G-associated kinase (Homo sapiens) (UniProt O14976); assay: Inhibition of wild-type human partial length GAK (G13 to Y338 residues) expressed in bacterial expression system assessed as residual activity at 50 nM by Kinomescan method relative to control
[5] = molecular target: Serine/threonine-protein kinase N1 (Homo sapiens) (UniProt Q16512); assay: Inhibition of human PKN1 (E598 to C948 residues) expressed in bacterial expression system assessed as residual activity at 50 nM by KINOMEscan assay relative to control
[6] = molecular target: Activin receptor type-1 (Homo sapiens) (UniProt Q04771); assay: Inhibition of wild-type human ALK2 (C188 to C509 residues) expressed in bacterial expression system assessed as residual activity at 50 nM by Kinomescan method relative to control
[7] = molecular target: Insulin-like growth factor 1 receptor (Homo sapiens) (UniProt P08069); assay: Inhibition of wild-type human partial length IGF1R (L972 to D1294 residues) expressed in bacterial expression system assessed as residual activity at 50 nM by Kinomescan method relative to control
[8] = molecular target: Serine/threonine-protein kinase 17A (Homo sapiens) (UniProt Q9UEE5); assay: Inhibition of wild-type human partial length DRAK1 (R32 to E363 residues) expressed in bacterial expression system assessed as residual activity at 50 nM by Kinomescan method relative to control
[9] = molecular target: Serine/threonine-protein kinase Nek4 (Homo sapiens) (UniProt P51957); assay: Inhibition of wild-type human full length NEK4 (M1 to F841 residues) expressed in mammalian expression system assessed as residual activity at 50 nM by Kinomescan method relative to control
[10] = molecular target: Phosphatidylinositol 4-phosphate 5-kinase type-1 gamma (Homo sapiens) (UniProt O60331); assay: Inhibition of wild-type human partial length PIP5K1C (M1 to T668 residues) expressed in mammalian expression system assessed as residual activity at 50 nM by Kinomescan method relative to control
[11] = molecular target: TRAF2 and NCK-interacting protein kinase (Homo sapiens) (UniProt Q9UKE5); assay: Inhibition of wild-type human partial length TNIK (D4 to K311 residues) expressed in bacterial expression system assessed as residual activity at 50 nM by Kinomescan method relative to control
[12] = molecular target: Serine/threonine-protein kinase 4 (Homo sapiens) (UniProt Q13043); assay: Inhibition of wild-type human full length MST1 (M1 to F487 residues) expressed in bacterial expression system assessed as residual activity at 50 nM by Kinomescan method relative to control
[13] = molecular target: G protein-coupled receptor kinase 4 (Homo sapiens) (UniProt P32298); assay: Inhibition of wild-type human full length GPRK4 (M1 to C578 residues) expressed in bacterial expression system assessed as residual activity at 50 nM by Kinomescan method relative to control
[14] = molecular target: cGMP-dependent protein kinase 1 (Homo sapiens) (UniProt Q13976); assay: Inhibition of wild-type human partial length PKG1 (L339 to F686 residues) expressed in bacterial expression system assessed as residual activity at 50 nM by Kinomescan method relative to control
[15] = molecular target: Serine/threonine-protein kinase D3 (Homo sapiens) (UniProt O94806); assay: Inhibition of wild-type human partial length PKD3 (S543 to E863 residues) expressed in bacterial expression system assessed as residual activity at 50 nM by Kinomescan method relative to control
[16] = molecular target: Protein kinase C epsilon type (Homo sapiens) (UniProt Q02156); assay: Inhibition of wild-type human partial length PKCE (A378 to P737 residues) expressed in mammalian expression system assessed as residual activity at 50 nM by Kinomescan method relative to control
[17] = molecular target: Ephrin type-A receptor 6 (Homo sapiens) (UniProt Q9UF33); assay: Inhibition of wild-type human partial length EPHA6 (Y700 to E1046 residues) expressed in bacterial expression system assessed as residual activity at 50 nM by Kinomescan method relative to control
[18] = molecular target: Mitogen-activated protein kinase kinase kinase kinase 2 (Homo sapiens) (UniProt Q12851); assay: Inhibition of human GCK (M1 to G318 residues) expressed in mammalian expression system assessed as residual activity at 50 nM by KINOMEscan assay relative to control
Mus musculus = assay: In vivo inhibition of JAK1/JAK3 in Balb/c mouse assessed as reduction in IL15-induced STAT5 phosphorylation at […], po after 4 hrs; assay type: functional, organism-based
[19] = molecular target: Glycogen synthase kinase-3 alpha (Homo sapiens) (UniProt P49840); assay: Inhibition of wild-type human full length GSK3A (M1 to S483 residues) expressed in bacterial expression system assessed as residual activity at 50 nM by Kinomescan method relative to control
[20] = molecular target: Mitogen-activated protein kinase kinase kinase 11 (Homo sapiens) (UniProt Q16584); assay: Inhibition of wild-type human partial length MLK3 (I77 to W399 residues) expressed in bacterial expression system assessed as residual activity at 50 nM by Kinomescan method relative to control
[21] = molecular target: Tyrosine-protein kinase ABL1 (Homo sapiens) (UniProt P00519); assay: Inhibition of wild-type human phosphorylated ABL1 (S229 to K512 residues) expressed in mammalian expression system assessed as residual activity at 50 nM by Kinomescan method relative to control
[22] = molecular target: Serine/threonine-protein kinase RIO2 (Homo sapiens) (UniProt Q9BVS4); assay: Inhibition of wild-type human partial length RIOK2 (M1 to D313 residues) expressed in mammalian expression system assessed as residual activity at 50 nM by Kinomescan method relative to control
[23] = molecular target: Fibroblast growth factor receptor 1 (Homo sapiens) (UniProt P11362); assay: Inhibition of wild-type human partial length FGFR1 (P357 to V669 residues) expressed in bacterial expression system assessed as residual activity at 50 nM by Kinomescan method relative to control
[24] = molecular target: Transient receptor potential cation channel subfamily M member 6 (Homo sapiens) (UniProt Q9BX84); assay: Inhibition of wild-type human partial length TRPM6 (Q1723 to I1998 residues) expressed in mammalian expression system assessed as residual activity at 50 nM by Kinomescan method relative to control

Sequence of Mitogen-activated protein kinase kinase kinase kinase 1 (Homo sapiens) (Q92918 whole entry, looked up, the tested form may be a part): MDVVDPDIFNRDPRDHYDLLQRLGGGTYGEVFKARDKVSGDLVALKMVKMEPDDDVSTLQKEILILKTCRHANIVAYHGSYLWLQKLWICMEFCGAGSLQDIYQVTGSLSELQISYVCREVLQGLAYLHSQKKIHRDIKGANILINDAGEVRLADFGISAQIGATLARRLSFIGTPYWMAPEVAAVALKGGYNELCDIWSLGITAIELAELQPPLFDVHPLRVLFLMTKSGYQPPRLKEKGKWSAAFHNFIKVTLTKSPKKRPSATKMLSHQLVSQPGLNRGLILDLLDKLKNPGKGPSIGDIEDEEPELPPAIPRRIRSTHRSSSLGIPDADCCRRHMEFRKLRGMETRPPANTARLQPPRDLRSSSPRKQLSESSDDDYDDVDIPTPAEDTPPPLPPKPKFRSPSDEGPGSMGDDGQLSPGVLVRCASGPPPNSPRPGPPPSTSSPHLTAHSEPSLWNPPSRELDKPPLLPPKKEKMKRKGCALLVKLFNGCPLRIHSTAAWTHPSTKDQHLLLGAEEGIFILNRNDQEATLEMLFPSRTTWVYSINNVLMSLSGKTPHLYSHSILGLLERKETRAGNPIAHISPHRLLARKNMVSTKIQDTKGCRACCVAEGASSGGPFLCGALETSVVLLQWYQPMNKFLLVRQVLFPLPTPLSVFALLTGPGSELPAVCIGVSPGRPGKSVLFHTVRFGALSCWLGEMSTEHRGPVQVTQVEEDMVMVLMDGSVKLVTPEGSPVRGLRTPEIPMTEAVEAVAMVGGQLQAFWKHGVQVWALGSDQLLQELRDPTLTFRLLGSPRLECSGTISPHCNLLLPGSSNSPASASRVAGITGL
Sequence of Insulin-like growth factor 1 receptor (Homo sapiens) (P08069 31-736 limits assumed): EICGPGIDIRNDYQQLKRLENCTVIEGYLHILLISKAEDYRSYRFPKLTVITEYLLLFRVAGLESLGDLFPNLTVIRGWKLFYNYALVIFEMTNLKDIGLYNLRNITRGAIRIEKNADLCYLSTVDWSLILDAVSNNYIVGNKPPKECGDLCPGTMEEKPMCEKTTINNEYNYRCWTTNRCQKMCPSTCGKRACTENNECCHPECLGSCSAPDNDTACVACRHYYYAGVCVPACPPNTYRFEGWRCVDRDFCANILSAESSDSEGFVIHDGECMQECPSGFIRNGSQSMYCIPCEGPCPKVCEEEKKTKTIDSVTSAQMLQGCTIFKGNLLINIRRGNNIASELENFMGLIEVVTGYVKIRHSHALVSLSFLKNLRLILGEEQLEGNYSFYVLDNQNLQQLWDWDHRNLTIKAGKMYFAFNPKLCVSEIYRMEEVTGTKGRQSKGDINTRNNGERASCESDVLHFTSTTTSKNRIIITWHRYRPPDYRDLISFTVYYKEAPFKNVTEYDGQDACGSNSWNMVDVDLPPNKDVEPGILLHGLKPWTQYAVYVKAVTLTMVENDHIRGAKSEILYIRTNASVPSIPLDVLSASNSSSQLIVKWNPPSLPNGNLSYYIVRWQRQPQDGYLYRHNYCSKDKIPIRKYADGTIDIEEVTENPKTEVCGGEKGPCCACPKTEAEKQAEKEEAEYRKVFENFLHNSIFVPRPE
Sequence of Insulin-like growth factor 1 receptor (Homo sapiens) (P08069 741-1367 limits assumed): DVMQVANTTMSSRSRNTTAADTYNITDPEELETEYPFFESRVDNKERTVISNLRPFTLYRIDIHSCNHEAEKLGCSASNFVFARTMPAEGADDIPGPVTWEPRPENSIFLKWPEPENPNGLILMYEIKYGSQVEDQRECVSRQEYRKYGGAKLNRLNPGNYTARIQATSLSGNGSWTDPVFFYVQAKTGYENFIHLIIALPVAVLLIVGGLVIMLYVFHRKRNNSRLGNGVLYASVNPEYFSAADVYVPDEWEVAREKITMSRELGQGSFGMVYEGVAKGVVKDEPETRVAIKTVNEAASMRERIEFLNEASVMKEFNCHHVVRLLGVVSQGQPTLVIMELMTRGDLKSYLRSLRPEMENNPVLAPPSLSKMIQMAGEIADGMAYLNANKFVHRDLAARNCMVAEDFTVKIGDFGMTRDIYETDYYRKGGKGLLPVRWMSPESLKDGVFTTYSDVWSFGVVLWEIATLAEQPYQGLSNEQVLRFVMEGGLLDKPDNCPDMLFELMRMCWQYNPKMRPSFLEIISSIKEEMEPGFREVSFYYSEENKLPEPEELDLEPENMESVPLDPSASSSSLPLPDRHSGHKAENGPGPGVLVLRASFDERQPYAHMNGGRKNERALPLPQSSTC
Sequence of Serine/threonine-protein kinase 4 (Homo sapiens) (Q13043 whole entry, the tested form may be a part): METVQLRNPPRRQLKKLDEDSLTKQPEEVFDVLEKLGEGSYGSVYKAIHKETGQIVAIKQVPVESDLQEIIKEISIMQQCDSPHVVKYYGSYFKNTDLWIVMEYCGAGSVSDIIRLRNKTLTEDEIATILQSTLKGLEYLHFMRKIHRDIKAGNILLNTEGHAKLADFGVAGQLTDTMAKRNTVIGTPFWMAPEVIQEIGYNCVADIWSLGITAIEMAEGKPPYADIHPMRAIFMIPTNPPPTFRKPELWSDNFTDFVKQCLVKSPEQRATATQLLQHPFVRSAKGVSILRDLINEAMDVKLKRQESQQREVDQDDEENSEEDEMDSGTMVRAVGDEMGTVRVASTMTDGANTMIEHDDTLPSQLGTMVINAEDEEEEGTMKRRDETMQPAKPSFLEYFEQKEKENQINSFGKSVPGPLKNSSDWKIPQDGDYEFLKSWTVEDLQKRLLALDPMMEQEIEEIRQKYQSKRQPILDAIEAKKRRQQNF
Sequence of Fibroblast growth factor receptor 1 (Homo sapiens) (P11362 22-822 limits assumed): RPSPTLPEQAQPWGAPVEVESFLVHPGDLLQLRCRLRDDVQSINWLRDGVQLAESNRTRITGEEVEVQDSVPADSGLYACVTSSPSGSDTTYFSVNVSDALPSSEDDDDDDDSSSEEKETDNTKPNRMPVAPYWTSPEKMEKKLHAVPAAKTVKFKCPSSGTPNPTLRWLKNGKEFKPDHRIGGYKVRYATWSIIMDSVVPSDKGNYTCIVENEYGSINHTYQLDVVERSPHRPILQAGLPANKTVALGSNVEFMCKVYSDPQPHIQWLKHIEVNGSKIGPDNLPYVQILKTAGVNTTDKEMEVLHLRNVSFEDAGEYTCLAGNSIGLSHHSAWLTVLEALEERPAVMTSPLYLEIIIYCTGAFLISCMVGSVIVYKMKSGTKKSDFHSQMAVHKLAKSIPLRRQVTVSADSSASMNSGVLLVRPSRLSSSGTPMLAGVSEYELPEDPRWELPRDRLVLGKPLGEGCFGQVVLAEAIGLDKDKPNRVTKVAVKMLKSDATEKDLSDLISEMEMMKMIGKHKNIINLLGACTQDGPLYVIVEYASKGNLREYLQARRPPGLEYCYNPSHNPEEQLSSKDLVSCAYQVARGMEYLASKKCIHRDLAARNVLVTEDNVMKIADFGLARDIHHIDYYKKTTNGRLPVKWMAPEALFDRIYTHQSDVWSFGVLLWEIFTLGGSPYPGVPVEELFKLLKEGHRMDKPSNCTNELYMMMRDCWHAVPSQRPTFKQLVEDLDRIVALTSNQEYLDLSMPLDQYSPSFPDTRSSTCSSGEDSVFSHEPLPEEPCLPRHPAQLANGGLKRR
Sequence of Serine/threonine-protein kinase N1 (Homo sapiens) (Q16512 2-942 limits assumed): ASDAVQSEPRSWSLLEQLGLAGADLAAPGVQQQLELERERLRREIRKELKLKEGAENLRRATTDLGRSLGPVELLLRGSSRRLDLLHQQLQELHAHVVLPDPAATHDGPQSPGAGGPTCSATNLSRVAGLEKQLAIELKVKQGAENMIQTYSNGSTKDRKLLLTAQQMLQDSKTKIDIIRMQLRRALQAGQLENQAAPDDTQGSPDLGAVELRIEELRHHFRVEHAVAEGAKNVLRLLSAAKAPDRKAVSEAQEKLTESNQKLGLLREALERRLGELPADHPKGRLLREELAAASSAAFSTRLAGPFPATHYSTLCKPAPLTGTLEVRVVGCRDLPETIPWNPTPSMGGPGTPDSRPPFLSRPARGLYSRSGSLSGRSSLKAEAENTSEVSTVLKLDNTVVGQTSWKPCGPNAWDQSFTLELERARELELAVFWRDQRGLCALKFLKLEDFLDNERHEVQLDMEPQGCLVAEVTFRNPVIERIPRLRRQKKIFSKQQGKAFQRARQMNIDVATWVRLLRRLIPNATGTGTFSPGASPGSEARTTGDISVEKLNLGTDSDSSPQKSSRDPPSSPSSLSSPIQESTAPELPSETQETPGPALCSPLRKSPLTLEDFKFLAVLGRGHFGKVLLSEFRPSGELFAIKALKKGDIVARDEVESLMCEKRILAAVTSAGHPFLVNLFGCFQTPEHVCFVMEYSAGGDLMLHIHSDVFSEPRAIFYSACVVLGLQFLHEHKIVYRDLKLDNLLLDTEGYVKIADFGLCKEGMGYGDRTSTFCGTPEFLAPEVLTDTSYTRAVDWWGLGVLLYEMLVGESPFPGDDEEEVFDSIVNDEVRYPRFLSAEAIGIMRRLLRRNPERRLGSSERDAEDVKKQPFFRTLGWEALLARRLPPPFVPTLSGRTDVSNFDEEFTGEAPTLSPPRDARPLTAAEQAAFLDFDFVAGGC
Sequence of Glycogen synthase kinase-3 alpha (Homo sapiens) (P49840 2-483 limits assumed): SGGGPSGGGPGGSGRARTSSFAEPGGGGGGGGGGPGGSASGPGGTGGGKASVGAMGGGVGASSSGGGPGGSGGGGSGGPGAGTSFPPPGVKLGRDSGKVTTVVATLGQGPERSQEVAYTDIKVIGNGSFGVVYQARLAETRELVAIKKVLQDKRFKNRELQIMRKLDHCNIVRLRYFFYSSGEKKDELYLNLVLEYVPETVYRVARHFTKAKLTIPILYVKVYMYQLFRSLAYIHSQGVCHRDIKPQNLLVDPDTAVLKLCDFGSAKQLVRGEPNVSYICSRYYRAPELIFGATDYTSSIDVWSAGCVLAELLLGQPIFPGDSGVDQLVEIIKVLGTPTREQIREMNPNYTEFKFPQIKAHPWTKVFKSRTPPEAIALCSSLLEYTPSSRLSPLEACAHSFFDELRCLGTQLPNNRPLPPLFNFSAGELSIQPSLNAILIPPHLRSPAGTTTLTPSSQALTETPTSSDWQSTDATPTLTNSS

COc1ccc(-c2cc3c(N[C@@H]4CC[C@](C)(N)C4(C)C)c(C(N)=O)cnn3c2)cn1
Activity [1]: 7% | Activity [2]: 70% | Activity [3]: 64% | Activity [4]: 100% | Activity [5]: 7% | Activity [6]: 96% | Activity [7]: 100% | Activity [8]: 100% | Activity [9]: 100% | Activity [10]: 77% | Activity [11]: 93% | Activity [12]: 35% | Activity [13]: 100% | Activity [14]: 100% | Activity [15]: 73% | Activity [16]: 72% | Activity [17]: 95% | Activity [18]: 26% | EC50 (Mus musculus): 67 nM | Activity [19]: 100% | Activity [20]: 100% | Activity [21]: 74% | Activity [22]: 99% | Activity [23]: 92% | Activity [24]: 90%

CC1(C)[C@H](Nc2c(C(N)=O)cnn3cc(-c4ccccc4)cc23)CC[C@]1(C)N
Activity [1]: 2.7% | Activity [2]: 66% | Activity [3]: 19% | Activity [4]: 91% | Activity [5]: 0.3% | Activity [6]: 100% | Activity [7]: 100% | Activity [8]: 100% | Activity [9]: 52% | Activity [10]: 68% | Activity [11]: 66% | Activity [12]: 19% | Activity [13]: 64% | Activity [14]: 100% | Activity [15]: 96% | Activity [16]: 58% | Activity [17]: 100% | Activity [18]: 3.6% | EC50 (Mus musculus): 125 nM | Activity [19]: 65% | Activity [20]: 64% | Activity [21]: 100% | Activity [22]: 50% | Activity [23]: 81% | Activity [24]: 100%
